Measurements reported in US6358885B1, “Substituted phenylheterocyclic herbicides” (Mississippi State University, priority 1992, dated 2002).

Assays:
Test in all cases: Test F preemergence/postemergence greenhouse plant response rating 0 to 100
blackgrass = type: in vivo, Alopecurus myosuroides; settings: 0 to 100 scale
Text: (§1) Compounds evaluated in this test were formulated in a non-phytoxic solvent and applied to the soil surface before plant seedlings emerged (preemergence application) and to plants that were in the one-to-four leaf stage (postemergence application). A sandy loam soil was used for the preemergence test while a mixture of sandy loam soil and greenhouse potting mix in a 60:40 ratio was used for the postemergence test. Test compounds were applied within approximately one day after planting seeds for the preemergence test. Plantings of these crops and weed species were adjusted to produce plants of appropriate size for the postemergence test. All plant species were grown using normal greenhouse practices. Crop and weed species include winter barley (Hordeum vulgare cv. ‘Igri’), blackgrass (Alopecurus myosuroides), chickweed (Stellaria media), downy brome (Bromus tectorum), field violet (Viola arvensis), galium (Galium aparine), green foxtail (Setaria viridis), kochia (Kochia scoparia), lambsquarters (Chenopodium album), speedwell (Veronica persica), rape (Brassica napus), ryegrass (Lolium multiflorum), sugar beet (Beta vulgaris cv. ‘USl’), sunflower (Helianthus annuus cv. ‘Russian Giant’), spring wheat (Triticum aestivum cv. ‘ERA’), winter wheat (Triticum aestivum cv. ‘Talent’), wild buckwheat (Polygonum convolvulus), wild mustard (Sinapis arvensis), wild oat (Avena fatua), and wild radish (Raphanus raphanistrum). Blackgrass, galium and wild oat were treated at two growth stages. […] Treated plants and untreated controls were maintained in a greenhouse for approximately 21 to 28 days, after which all treated plants were compared to untreated controls and visually evaluated. […] A dash response (-) means no test result.

downy brome = type: in vivo, Bromus tectorum; settings: 0 to 100 scale
Text: as §1

galium = type: in vivo, Galium aparine; settings: 0 to 100 scale
Text: as §1

lambsquarters = type: in vivo, Chenopodium album; settings: 0 to 100 scale
Text: as §1

speedwell = type: in vivo, Veronica persica; settings: 0 to 100 scale
Text: as §1

rape = type: in vivo, Brassica napus; settings: 0 to 100 scale
Text: as §1

ryegrass = type: in vivo, Lolium multiflorum; settings: POSTEMERGENCE, Rate 4 g/ha, 0 to 100 scale
Text: as §1

[1] = POSTEMERGENCE, Rate 4 g/ha, stage (1) two to three leaves
[2] = POSTEMERGENCE, Rate 4 g/ha, stage (2) approximately four leaves or initial tillering
[3] = POSTEMERGENCE, Rate 8 g/ha, stage (1) two to three leaves
[4] = POSTEMERGENCE, Rate 8 g/ha, stage (2) approximately four leaves or initial tillering
[5] = POSTEMERGENCE, Rate 16 g/ha, stage (1) two to three leaves
[6] = POSTEMERGENCE, Rate 16 g/ha, stage (2) approximately four leaves or initial tillering
[7] = POSTEMERGENCE, Rate 32 g/ha, stage (1) two to three leaves
[8] = POSTEMERGENCE, Rate 32 g/ha, stage (2) approximately four leaves or initial tillering
[9] = POSTEMERGENCE, Rate 64 g/ha, stage (1) two to three leaves
[10] = POSTEMERGENCE, Rate 64 g/ha, stage (2) approximately four leaves or initial tillering
[11] = POSTEMERGENCE, Rate 125 g/ha, stage (1) two to three leaves
[12] = POSTEMERGENCE, Rate 125 g/ha, stage (2) approximately four leaves or initial tillering
[13] = POSTEMERGENCE, Rate 250 g/ha, stage (1) two to three leaves
[14] = POSTEMERGENCE, Rate 250 g/ha, stage (2) approximately four leaves or initial tillering

C#CCOc1cc(-c2nn3c(c2Br)CCCC3)c(F)cc1Cl [Compound 26]
Blackgrass (1) plant response rating (blackgrass; [1]): 0
Blackgrass (2) plant response rating (blackgrass; [2]): 0
Blackgrass (1) plant response rating (blackgrass; [3]): 0
Blackgrass (2) plant response rating (blackgrass; [4]): 0
Blackgrass (1) plant response rating (blackgrass; [5]): 0
Blackgrass (2) plant response rating (blackgrass; [6]): 0
Blackgrass (1) plant response rating (blackgrass; [7]): 0
Blackgrass (2) plant response rating (blackgrass; [8]): 0
Blackgrass (1) plant response rating (blackgrass; [9]): 0
Blackgrass (2) plant response rating (blackgrass; [10]): 10
Blackgrass (1) plant response rating (blackgrass; [11]): 10
Blackgrass (2) plant response rating (blackgrass; [12]): 10
Blackgrass (1) plant response rating (blackgrass; [13]): 30
Blackgrass (2) plant response rating (blackgrass; [14]): 15
Blackgrass (1) plant response rating (blackgrass; PREEMERGENCE, Rate 4 g/ha, Blackgrass (1)): 0
Blackgrass (2) plant response rating (blackgrass; PREEMERGENCE, Rate 4 g/ha, Blackgrass (2)): 0
Blackgrass (1) plant response rating (blackgrass; PREEMERGENCE, Rate 8 g/ha, Blackgrass (1)): 0
Blackgrass (2) plant response rating (blackgrass; PREEMERGENCE, Rate 8 g/ha, Blackgrass (2)): 0
Blackgrass (1) plant response rating (blackgrass; PREEMERGENCE, Rate 16 g/ha, Blackgrass (1)): 0
Blackgrass (2) plant response rating (blackgrass; PREEMERGENCE, Rate 16 g/ha, Blackgrass (2)): 0
Blackgrass (1) plant response rating (blackgrass; PREEMERGENCE, Rate 32 g/ha, Blackgrass (1)): 0
Blackgrass (2) plant response rating (blackgrass; PREEMERGENCE, Rate 32 g/ha, Blackgrass (2)): 0
Blackgrass (1) plant response rating (blackgrass; PREEMERGENCE, Rate 64 g/ha, Blackgrass (1)): 0
Blackgrass (2) plant response rating (blackgrass; PREEMERGENCE, Rate 64 g/ha, Blackgrass (2)): 0
Blackgrass (1) plant response rating (blackgrass; PREEMERGENCE, Rate 125 g/ha, Blackgrass (1)): 20
Blackgrass (2) plant response rating (blackgrass; PREEMERGENCE, Rate 125 g/ha, Blackgrass (2)): 40
Blackgrass (1) plant response rating (blackgrass; PREEMERGENCE, Rate 250 g/ha, Blackgrass (1)): 40
Blackgrass (2) plant response rating (blackgrass; PREEMERGENCE, Rate 250 g/ha, Blackgrass (2)): 40
Downy brome plant response rating (downy brome; POSTEMERGENCE, Rate 4 g/ha): 0
Downy brome plant response rating (downy brome; POSTEMERGENCE, Rate 8 g/ha): 0
Downy brome plant response rating (downy brome; POSTEMERGENCE, Rate 16 g/ha): 0
Downy brome plant response rating (downy brome; POSTEMERGENCE, Rate 32 g/ha): 0
Downy brome plant response rating (downy brome; POSTEMERGENCE, Rate 64 g/ha): 30
Downy brome plant response rating (downy brome; POSTEMERGENCE, Rate 125 g/ha): 50
Downy brome plant response rating (downy brome; POSTEMERGENCE, Rate 250 g/ha): 10
Downy brome plant response rating (downy brome; PREEMERGENCE, Rate 4 g/ha): 0
Downy brome plant response rating (downy brome; PREEMERGENCE, Rate 8 g/ha): 0
Downy brome plant response rating (downy brome; PREEMERGENCE, Rate 16 g/ha): 0
Downy brome plant response rating (downy brome; PREEMERGENCE, Rate 32 g/ha): 0
Downy brome plant response rating (downy brome; PREEMERGENCE, Rate 64 g/ha): 0
Downy brome plant response rating (downy brome; PREEMERGENCE, Rate 125 g/ha): 30
Downy brome plant response rating (downy brome; PREEMERGENCE, Rate 250 g/ha): 40
Galium (1) plant response rating (galium; [1]): 0
Galium (2) plant response rating (galium; [2]): 50
Galium (1) plant response rating (galium; [3]): 0
Galium (2) plant response rating (galium; [4]): 50
Galium (1) plant response rating (galium; [5]): 30
Galium (2) plant response rating (galium; [6]): 100
Galium (1) plant response rating (galium; [7]): 50
Galium (2) plant response rating (galium; [8]): 60
Galium (1) plant response rating (galium; [9]): 100
Galium (2) plant response rating (galium; [10]): 100
Galium (1) plant response rating (galium; [11]): 100
Galium (2) plant response rating (galium; [12]): 100
Galium (1) plant response rating (galium; [13]): 100
Galium (2) plant response rating (galium; [14]): 100
Galium (1) plant response rating (galium; PREEMERGENCE, Rate 4 g/ha, Galium (1)): 0
Galium (2) plant response rating (galium; PREEMERGENCE, Rate 4 g/ha, Galium (2)): 0
Galium (1) plant response rating (galium; PREEMERGENCE, Rate 8 g/ha, Galium (1)): 0
Galium (2) plant response rating (galium; PREEMERGENCE, Rate 8 g/ha, Galium (2)): 20
Galium (1) plant response rating (galium; PREEMERGENCE, Rate 16 g/ha, Galium (1)): 0
Galium (2) plant response rating (galium; PREEMERGENCE, Rate 16 g/ha, Galium (2)): 40
Galium (1) plant response rating (galium; PREEMERGENCE, Rate 32 g/ha, Galium (1)): 100
Galium (2) plant response rating (galium; PREEMERGENCE, Rate 32 g/ha, Galium (2)): 100
Galium (1) plant response rating (galium; PREEMERGENCE, Rate 64 g/ha, Galium (1)): 100
Galium (2) plant response rating (galium; PREEMERGENCE, Rate 64 g/ha, Galium (2)): 100
Galium (1) plant response rating (galium; PREEMERGENCE, Rate 125 g/ha, Galium (1)): 100
Galium (2) plant response rating (galium; PREEMERGENCE, Rate 125 g/ha, Galium (2)): 100
Galium (1) plant response rating (galium; PREEMERGENCE, Rate 250 g/ha, Galium (1)): 100
Galium (2) plant response rating (galium; PREEMERGENCE, Rate 250 g/ha, Galium (2)): 100
Lambsquarters plant response rating (lambsquarters; POSTEMERGENCE, Rate 8 g/ha): 50
Lambsquarters plant response rating (lambsquarters; POSTEMERGENCE, Rate 16 g/ha): 50
Lambsquarters plant response rating (lambsquarters; POSTEMERGENCE, Rate 32 g/ha): 100
Lambsquarters plant response rating (lambsquarters; POSTEMERGENCE, Rate 64 g/ha): 100
Lambsquarters plant response rating (lambsquarters; POSTEMERGENCE, Rate 125 g/ha): 100
Lambsquarters plant response rating (lambsquarters; POSTEMERGENCE, Rate 250 g/ha): 100
Lambsquarters plant response rating (lambsquarters; PREEMERGENCE, Rate 4 g/ha): 0
Lambsquarters plant response rating (lambsquarters; PREEMERGENCE, Rate 8 g/ha): 70
Lambsquarters plant response rating (lambsquarters; PREEMERGENCE, Rate 16 g/ha): 80
Lambsquarters plant response rating (lambsquarters; PREEMERGENCE, Rate 32 g/ha): 100
Lambsquarters plant response rating (lambsquarters; PREEMERGENCE, Rate 64 g/ha): 100
Lambsquarters plant response rating (lambsquarters; PREEMERGENCE, Rate 125 g/ha): 100
Persn Speedwell plant response rating (speedwell; POSTEMERGENCE, Rate 4 g/ha): 60
Persn Speedwell plant response rating (speedwell; POSTEMERGENCE, Rate 8 g/ha): 60
Persn Speedwell plant response rating (speedwell; POSTEMERGENCE, Rate 32 g/ha): 100
Persn Speedwell plant response rating (speedwell; POSTEMERGENCE, Rate 64 g/ha): 100
Persn Speedwell plant response rating (speedwell; POSTEMERGENCE, Rate 125 g/ha): 100
Persn Speedwell plant response rating (speedwell; POSTEMERGENCE, Rate 250 g/ha): 100
Persn Speedwell plant response rating (speedwell; PREEMERGENCE, Rate 4 g/ha): 50
Persn Speedwell plant response rating (speedwell; PREEMERGENCE, Rate 8 g/ha): 80
Persn Speedwell plant response rating (speedwell; PREEMERGENCE, Rate 16 g/ha): 100
Persn Speedwell plant response rating (speedwell; PREEMERGENCE, Rate 32 g/ha): 100
Persn Speedwell plant response rating (speedwell; PREEMERGENCE, Rate 64 g/ha): 100
Persn Speedwell plant response rating (speedwell; PREEMERGENCE, Rate 125 g/ha): 100
Persn Speedwell plant response rating (speedwell; PREEMERGENCE, Rate 250 g/ha): 100
Rape plant response rating (rape; POSTEMERGENCE, Rate 4 g/ha): 0
Rape plant response rating (rape; POSTEMERGENCE, Rate 8 g/ha): 0
Rape plant response rating (rape; POSTEMERGENCE, Rate 16 g/ha): 50
Rape plant response rating (rape; POSTEMERGENCE, Rate 32 g/ha): 100
Rape plant response rating (rape; POSTEMERGENCE, Rate 64 g/ha): 100
Rape plant response rating (rape; POSTEMERGENCE, Rate 125 g/ha): 100
Rape plant response rating (rape; POSTEMERGENCE, Rate 250 g/ha): 100
Rape plant response rating (rape; PREEMERGENCE, Rate 4 g/ha): 0
Rape plant response rating (rape; PREEMERGENCE, Rate 8 g/ha): 0
Rape plant response rating (rape; PREEMERGENCE, Rate 16 g/ha): 0
Rape plant response rating (rape; PREEMERGENCE, Rate 32 g/ha): 20
Rape plant response rating (rape; PREEMERGENCE, Rate 64 g/ha): 60
Rape plant response rating (rape; PREEMERGENCE, Rate 125 g/ha): 80
Rape plant response rating (rape; PREEMERGENCE, Rate 250 g/ha): 100
Ryegrass plant response rating (ryegrass): 0
